Experimental data reported in patent publication US20220160901A1, “Stimuli-Responsive Compositions, Imaging Systems, and Methods for Using the Same for Biomedical Applications” (The Regents of the University of California, priority 2019, published 2022).

Assay: T1 values measured using NMR
Set-up: unit not given here

Substance: Fe(Me-bik)3](BF4)2.25H2O
- T1 at 23° C. (1 mg/mL): 2.9433
- T1 at 40° C. (1 mg/mL): 4.2093
- T1 at 60° C. (1 mg/mL): 5.3784
- T1 at 23° C. (2 mg/mL): 2.8944
- T1 at 40° C. (2 mg/mL): 3.9614
- T1 at 60° C. (2 mg/mL): 4.9954
- T1 at 23° C. (4 mg/mL): 2.7392
- T1 at 40° C. (4 mg/mL): 3.4784
- T1 at 60° C. (4 mg/mL): 4.2761
- T1 at 23° C. (8 mg/mL): 2.7413
- T1 at 40° C. (8 mg/mL): 3.434
- T1 at 60° C. (8 mg/mL): 4.172
